Experimental data published in the supplement of paper PMC11061612.

How the values were obtained:
Capivasertib = compound: C1CN(CCC1(C(=O)N[C@@H](CCO)C2=CC=C(C=C2)Cl)N)C3=NC=NC4=C3C=CN4 [Capivasertib]; settings: max 10 µM
How it was run: (§1)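 Plates with 1536 wells received cancer cell lines in 7.5 μl of DMEM/F12 or RPMI containing 10% FBS. After 24 hours at 37°C and 5% CO2, cells were dosed for 72 hours with final DMSO typically 0.2%, and viability was read by CellTiter-Glo 2.0 luminescence scaled between blank-well and DMSO-well means. The single-agent IC50 was taken from a logistic fit of the dose responses made with a non-linear mixed effects model, that logistic curve having two parameters.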

AZD1775 = compound: C=CCn1c(=O)c2cnc(Nc3ccc(N4CCN(C)CC4)cc3)nc2n1-c1cccc(C(C)(C)O)n1 [AZD1775]; settings: max 3 µM
How it was run: as §1

Trametinib = compound: CC(=O)Nc1cccc(-n2c(=O)n(C3CC3)c(=O)c3c(Nc4ccc(I)cc4F)n(C)c(=O)c(C)c32)c1 [Trametinib]; settings: max 1 µM
How it was run: as §1

Palbociclib = compound: CC(=O)c1c(C)c2cnc(Nc3ccc(N4CCNCC4)cn3)nc2n(C2CCCC2)c1=O [Palbociclib]; settings: max 10 µM
How it was run: as §1

AZD1390 = compound: CC(C)n1c(=O)n(C)c2cnc3cc(F)c(-c4ccc(OCCCN5CCCCC5)nc4)cc3c21 [AZD1390]; settings: max 0.3 µM
How it was run: as §1

Venetoclax = compound: CC1(C)CCC(CN2CCN(c3ccc(C(=O)NS(=O)(=O)c4ccc(NCC5CCOCC5)c([N+](=O)[O-])c4)c(Oc4cnc5[nH]ccc5c4)c3)CC2)=C(c2ccc(Cl)cc2)C1 [Venetoclax]; settings: max 1 µM
How it was run: as §1

Dasatinib = compound: CC1=C(C(=CC=C1)Cl)NC(=O)C2=CN=C(S2)NC3=CC(=NC(=N3)C)N4CCN(CC4)CCO [Dasatinib]; settings: max 2 µM
How it was run: as §1

SG3199 = compound: CC1=CN2[C@@H](C1)C=NC3=CC(=C(C=C3C2=O)OC)OCCCCCOC4=C(C=C5C(=C4)N=C[C@@H]6CC(=CN6C5=O)C)OC [SG3199]; settings: max 0.001 µM
How it was run: as §1

AZD2811 = compound: CCN(CCO)CCCOc1ccc2c(Nc3cc(CC(=O)Nc4cccc(F)c4)[nH]n3)ncnc2c1 [AZD2811]; settings: max 1 µM
How it was run: as §1

SN-38 = compound: CCc1c2c(nc3ccc(O)cc13)-c1cc3c(c(=O)n1C2)COC(=O)[C@]3(O)CC [SN-38]; settings: max 0.3 µM
How it was run: as §1

AZD0156 = compound: CN(C)CCCOc1ccc(-c2ccc3ncc4c(c3c2)n(C2CCOCC2)c(=O)n4C)cn1 [AZD0156]; settings: max 3 µM
How it was run: as §1

AZD4320 = compound: CN(CC[C@H](CSC1=CC=CC=C1)NC2=C(C=C(C=C2)S(=O)(=O)NC(=O)C3=CC=C(C=C3)N4CCC(CC4)[C@H](C5=CC=CC=C5C6=CC=C(C=C6)Cl)O)S(=O)(=O)C(F)(F)F)CCO [AZD4320]; settings: max 1 µM
How it was run: as §1

Alisertib = compound: COc1cc(Nc2ncc3c(n2)-c2ccc(Cl)cc2C(c2c(F)cccc2OC)=NC3)ccc1C(=O)O [Alisertib]; settings: max 10 µM
How it was run: as §1

Gefitinib = compound: COc1cc2ncnc(Nc3ccc(F)c(Cl)c3)c2cc1OCCCN1CCOCC1 [Gefitinib]; settings: max 10 µM
How it was run: as §1

Prexasertib = compound: COc1cccc(OCCCN)c1-c1cc(Nc2cnc(C#N)cn2)n[nH]1 [Prexasertib]; settings: max 1 µM
How it was run: as §1

Doxorubicin = compound: COc1cccc2c1C(=O)c1c(O)c3c(c(O)c1C2=O)C[C@@](O)(C(=O)CO)C[C@@H]3O[C@H]1C[C@H](N)[C@H](O)[C@H](C)O1 [Doxorubicin]; settings: max 1 µM
How it was run: as §1

AZD5153 = compound: COc1nnc2ccc(N3CCC(c4ccc(OCCN5CCN(C)C(=O)[C@H]5C)cc4)CC3)nn12 [AZD5153]; settings: max 1 µM
How it was run: as §1

Lapatinib = compound: CS(=O)(=O)CCNCc1ccc(-c2ccc3ncnc(Nc4ccc(OCc5cccc(F)c5)c(Cl)c4)c3c2)o1 [Lapatinib]; settings: max 10 µM
How it was run: as §1

AZD8186 = compound: C[C@@H](Nc1cc(F)cc(F)c1)c1cc(C(=O)N(C)C)cc2c(=O)cc(N3CCOCC3)oc12 [AZD8186]
How it was run: as §1

Crizotinib = compound: C[C@@H](Oc1cc(-c2cnn(C3CCNCC3)c2)cnc1N)c1c(Cl)ccc(F)c1Cl [Crizotinib]; settings: max 10 µM
How it was run: as §1

Savolitinib = compound: C[C@@H](c1ccc2nccn2c1)n1nnc2ncc(-c3cnn(C)c3)nc21 [Savolitinib]; settings: max 1 µM
How it was run: as §1

AZD6738 = compound: C[C@@H]1COCCN1C2=NC(=NC(=C2)C3(CC3)[S@](=N)(=O)C)C4=C5C=CNC5=NC=C4 [AZD6738]; settings: max 10 µM
How it was run: as §1

AZD5991 = compound: Cc1c2c(nn1C)CSCc1cc(n(C)n1)CSc1cc(c3ccccc3c1)OCCCc1c(C(=O)O)n(C)c3c-2c(Cl)ccc13 [AZD5991]; settings: max 1 µM
How it was run: as §1

AZD7648 = compound: Cc1cc2ncnn2cc1Nc1ncc2c(n1)n(C1CCOCC1)c(=O)n2C [AZD7648]; settings: max 10 µM
How it was run: as §1

Taselisib = compound: Cc1nc(-c2cn3c(n2)-c2ccc(-c4cnn(C(C)(C)C(N)=O)c4)cc2OCC3)n(C(C)C)n1 [Taselisib]; settings: max 10 µM
How it was run: as §1

Selumetinib = compound: Cn1cnc2c(F)c(Nc3ccc(Br)cc3Cl)c(C(=O)NOCCO)cc21 [Selumetinib]; settings: max 10 µM
How it was run: as §1

MK-2206 = compound: NC1(c2ccc(-c3nc4ccn5c(=O)[nH]nc5c4cc3-c3ccccc3)cc2)CCC1 [MK-2206]; settings: max 10 µM
How it was run: as §1

Olaparib = compound: O=C(c1cc(Cc2n[nH]c(=O)c3ccccc23)ccc1F)N1CCN(C(=O)C2CC2)CC1 [Olaparib]; settings: max 10 µM
How it was run: as §1

Carboplatin = compound: C1CC(C1)(C(=O)[O-])C(=O)[O-].N.N.[Pt+2] [Carboplatin]; settings: max 10 µM
How it was run: as §1

AZD5363 = compound: C1CN(CCC1(C(=O)N[C@@H](CCO)C2=CC=C(C=C2)Cl)N)C3=NC=NC4=C3C=CN4 [AZD5363]; settings: max 10 µM
How it was run: as §1

Paclitaxel = compound: CC(=O)O[C@H]1C(=O)[C@@]2(C)[C@H]([C@H](OC(=O)c3ccccc3)[C@]3(O)C[C@H](OC(=O)[C@H](O)[C@@H](NC(=O)c4ccccc4)c4ccccc4)C(C)=C1C3(C)C)[C@]1(OC(C)=O)CO[C@@H]1C[C@@H]2O [Paclitaxel]; settings: max 3 µM
How it was run: as §1

Etoposide = compound: COc1cc([C@@H]2c3cc4c(cc3[C@@H](O[C@@H]3O[C@@H]5CO[C@@H](C)O[C@H]5[C@H](O)[C@H]3O)[C@H]3COC(=O)[C@H]23)OCO4)cc(OC)c1O [Etoposide]; settings: max 10 µM
How it was run: as §1

SRA737 = compound: N#Cc1cnc(Nc2cc(NC[C@H]3CNCCO3)c(C(F)(F)F)cn2)cn1 [SRA737]; settings: max 10 µM
How it was run: as §1

[1] = compound: O=C(Nc1ccc2[nH]nc(-c3ccncc3)c2c1)[C@@H]1CCN(CC(=O)N2CCN(c3ccc(-c4ncccn4)cc3)CC2)C1; settings: max 5 µM
How it was run: as §1

5-Fluorouracil = compound: O=c1[nH]cc(F)c(=O)[nH]1 [5-Fluorouracil]; settings: max 20 µM
How it was run: as §1

Row | Cell Line | IC50, cell viability 72 h (Capivasertib) [nM] | IC50, cell viability 72 h (AZD1775) [nM] | IC50, cell viability 72 h (Trametinib) [nM] | IC50, cell viability 72 h (Palbociclib) [nM] | IC50, cell viability 72 h (AZD1390) [nM] | IC50, cell viability 72 h (Venetoclax) [nM] | IC50, cell viability 72 h (Dasatinib) [nM] | IC50, cell viability 72 h (SG3199) [nM] | IC50, cell viability 72 h (AZD2811) [nM] | IC50, cell viability 72 h (SN-38) [nM] | IC50, cell viability 72 h (AZD0156) [nM] | IC50, cell viability 72 h (AZD4320) [nM] | IC50, cell viability 72 h (Alisertib) [nM] | IC50, cell viability 72 h (Gefitinib) [nM] | IC50, cell viability 72 h (Prexasertib) [nM] | IC50, cell viability 72 h (Doxorubicin) [nM] | IC50, cell viability 72 h (AZD5153) [nM] | IC50, cell viability 72 h (Lapatinib) [nM] | IC50, cell viability 72 h (AZD8186; max 3 µM) [nM] | IC50, cell viability 72 h (Crizotinib) [nM] | IC50, cell viability 72 h (Savolitinib) [nM] | IC50, cell viability 72 h (AZD6738) [nM] | IC50, cell viability 72 h (AZD5991) [nM] | IC50, cell viability 72 h (AZD7648) [nM] | IC50, cell viability 72 h (Taselisib) [nM] | IC50, cell viability 72 h (Selumetinib) [nM] | IC50, cell viability 72 h (MK-2206) [nM] | IC50, cell viability 72 h (Olaparib) [nM] | IC50, cell viability 72 h (Carboplatin) [nM] | IC50, cell viability 72 h (AZD5363) [nM] | IC50, cell viability 72 h (Paclitaxel) [nM] | IC50, cell viability 72 h (Etoposide) [nM] | IC50, cell viability 72 h (AZD8186; max 10 µM) [nM] | IC50, cell viability 72 h (SRA737) [nM] | IC50, cell viability 72 h [1] [nM] | IC50, cell viability 72 h (5-Fluorouracil) [nM]
1 | OAW-28 (Ovarian Carcinoma) | > 10000 | > 3000 | > 1000 | > 10000 | > 300 | > 1000 | > 2000 | > 1 | > 1000 | 11.4 | > 3000 | 176 | > 10000 | > 10000 | 720 | > 1000 | > 1000 | > 10000 | > 3000 | > 10000 | > 1000 | > 10000 | > 1000 | > 10000 | 6130 | > 10000 | > 10000 | > 10000 | – | – | – | – | – | – | – | –
2 | SNU-407 (Colorectal Carcinoma) | 6340 | 1570 | 74.3 | > 10000 | > 300 | > 1000 | > 2000 | > 1 | > 1000 | 160 | > 3000 | > 1000 | 1150 | > 10000 | 458 | > 1000 | 62.9 | > 10000 | > 3000 | > 10000 | > 1000 | 4120 | > 1000 | > 10000 | 365 | 2560 | > 10000 | > 10000 | – | – | – | – | – | – | – | –
3 | KP-4 (Pancreatic Carcinoma) | – | 1340 | > 1000 | > 10000 | > 300 | > 1000 | > 2000 | > 1 | > 1000 | 31.6 | > 3000 | > 1000 | 5350 | > 10000 | > 1000 | > 1000 | 818 | > 10000 | – | 2720 | > 1000 | > 10000 | > 1000 | > 10000 | > 10000 | > 10000 | > 10000 | > 10000 | > 10000 | > 10000 | 6.9 | 1730 | > 10000 | > 10000 | > 5000 | > 20000
4 | NCI-H596 (Other Solid Carcinomas) | > 10000 | 1450 | > 1000 | > 10000 | > 300 | > 1000 | > 2000 | > 1 | > 1000 | > 300 | > 3000 | > 1000 | > 10000 | > 10000 | 866 | > 1000 | 301 | > 10000 | > 3000 | > 10000 | > 1000 | > 10000 | > 1000 | > 10000 | 4950 | > 10000 | > 10000 | > 10000 | – | – | – | – | – | – | – | –
5 | HT-1080 (Other Solid Carcinomas) | > 10000 | > 3000 | > 1000 | > 10000 | > 300 | > 1000 | > 2000 | > 1 | > 1000 | > 300 | > 3000 | 721 | > 10000 | > 10000 | 536 | > 1000 | > 1000 | > 10000 | > 3000 | > 10000 | > 1000 | > 10000 | > 1000 | > 10000 | > 10000 | > 10000 | – | > 10000 | – | – | – | – | – | – | – | –
6 | NCI-H1876 (Small Cell Lung Carcinoma) | > 10000 | 330 | > 1000 | > 10000 | > 300 | > 1000 | > 2000 | > 1 | 149 | 1.03 | > 3000 | 176 | 265 | > 10000 | 29.2 | 221 | > 1000 | > 10000 | > 3000 | 5910 | > 1000 | 4710 | > 1000 | > 10000 | 3900 | > 10000 | > 10000 | 4440 | – | – | – | – | – | – | – | –
